Experimental data reported in patent US20100298141A1, “SUBSTITUTED PYRIDINE N-OXIDE HERBICIDES” (E. I. DU PONT DE NEMOURS AND COMPANY, priority 2007, published 2010).

How the values were obtained:
[1] = system: barnyardgrass; assay: Test F preemergence test; format: in vivo, Echinochloa crus-galli
How it was run: (§1)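 Compound in a non-phytotoxic solvent blend with surfactant is applied preemergence to planted seeds or postemergence to sugarcane plants. Plants and controls stay in the greenhouse 14 to 21 days before visual comparison.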

[2] = system: bermudagrass; assay: Test F preemergence test; format: in vivo, Cynodon dactylon; conditions: scale 0 to 100
How it was run: as §1

[3] = system: kochia; assay: Test F preemergence test; format: in vivo, Kochia scoparia; conditions: scale 0 to 100
How it was run: as §1

[4] = system: mustard; assay: Test F preemergence test; format: in vivo, Brassica nigra; conditions: scale 0 to 100
How it was run: as §1

[5] = system: Surinam grass; assay: Test F preemergence test; format: in vivo, Brachiaria decumbens; conditions: scale 0 to 100
How it was run: as §1

[6] = system: Italian ryegrass; assay: Test F preemergence test; format: in vivo, Lolium multiflorum; conditions: scale 0 to 100
How it was run: as §1

[7] = system: quackgrass; assay: Test F preemergence test; format: in vivo, Elytrigia repens; conditions: scale 0 to 100
How it was run: as §1

[8] = system: purple nutsedge; assay: Test F preemergence test; format: in vivo, Cyperus rotundus; conditions: scale 0 to 100
How it was run: as §1

[9] = system: common ragweed; assay: Test F preemergence test; format: in vivo, Ambrosia elation; conditions: scale 0 to 100
Description: Seeds of plant species selected from bermudagrass (Cynodon dactylon), Surinam grass (Brachiaria decumbens), large crabgrass (Digitaria sanguinalis), green foxtail (Setaria viridis), goosegrass (Eleusine indica), johnsongrass (Sorghum halepense), kochia (Kochia scoparia), pitted morningglory (Ipomoea lacunosa), purple nutsedge (Cyperus rotundus), common ragweed (Ambrosia elation), mustard (Brassica nigra), guineagrass (Panicum maximum), […] (Paspalum dilatatum), barnyardgrass (Echinochloa crus-galli), southern sandbur (Cenchrus echinatus), common sowthistle (Sonchus oleraceous), prickly […] spinosa), Italian ryegrass (Lolium multiflorum), common purslane (Portulaca oleracea), broadleaf signalgrass (Brachiaria platyphylla), common groundsel (Senecio vulgaris), common chickweed (Stellaria media), Virginia dayflower (Commelina virginica), annual bluegrass (Poa annua), naked crabgrass (Digitaria nuda), […] cochinchinensis), quackgrass (Elytrigia repens), Canada horseweed (Conyza canadensis), field bindweed (Convolvulus arvensis), […] (Bidens bipinnata), common mallow (Malva sylvestris), Russian thistle (Salsola kali), and sugarcane (Saccharum officinarum) were planted and treated preemergence with test chemicals formulated in a non-phytotoxic solvent mixture which included a surfactant. At a different time, sugarcane was treated with postemergence applications of some of the test chemicals formulated in the same manner. Plants were approximately 3- to 4-leaf stage for the postemergence treatments. Treated plants and controls were maintained in a greenhouse for 14 to 21 days, after which time all species were compared to controls and visually evaluated. […] A dash (-) response means no test result.

[10] = system: goosegrass; assay: Test F preemergence test; format: in vivo, Eleusine indica; conditions: scale 0 to 100
How it was run: as §1

[11] = system: woolly cupgrass; assay: Test C pre-/postemergence test; format: in vivo, Eriochloa villosa
How it was run: (§2)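 Seeds were planted and treated preemergence with test chemical in a non-phytotoxic solvent mixture containing surfactant. Postemergence applications of the same formulation went onto plants 2 to 18 cm tall (1- to 4-leaf stage). A dash marks no test result.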

[12] = system: broadleaf signalgrass; assay: Test F preemergence test; format: in vivo, Brachiaria platyphylla; conditions: scale 0 to 100
How it was run: as §1

[13] = system: southern sandbur; assay: Test F preemergence test; format: in vivo, Cenchrus echinatus; conditions: scale 0 to 100
How it was run: as §1

[14] = system: blackgrass; assay: Test C pre-/postemergence test; format: in vivo, Alopecurus myosuroides
How it was run: as §2

[15] = system: corn; assay: Test C pre-/postemergence test; format: in vivo, Zea mays
How it was run: as §2

[16] = system: large crabgrass; assay: Test F preemergence test; format: in vivo, Digitaria sanguinalis; conditions: scale 0 to 100
How it was run: as §1

[17] = 62 g ai/ha, Preemergence, scale 0 to 100
[18] = Preemergence, 31 g ai/ha, scale 0 to 100
[19] = 125 g ai/ha, preemergence, scale 0 (no effect) to 100 (complete control)
[20] = preemergence, 250 g ai/ha, scale 0 (no effect) to 100 (complete control)
[21] = 31 g ai/ha, Preemergence, scale 0 to 100
[22] = 62 g ai/ha, preemergence, scale 0 (no effect) to 100 (complete control)
[23] = preemergence, 125 g ai/ha, scale 0 (no effect) to 100 (complete control)

## CCn1nc(C(F)(F)F)c(C[S+]([O-])c2cc(C)cc[n+]2[O-])c1OCC(F)(F)F (racemic) [Compound 66]
[1]; 16 g ai/ha, preemergence, scale 0 to 100 (0 no effect, 100 complete control)
  Plant response rating, Barnyardgrass: 30
[1]; [17]
  Barnyardgrass plant response rating: 100
[1]; 125 g ai/ha, preemergence, scale 0 to 100
  Barnyardgrass plant response rating: 100
[1]; [18]
  Plant response rating, Barnyardgrass: 75
[2]; 16 g ai/ha, preemergence
  Plant response rating, Bermudagrass: 40
[2]; 62 g ai/ha, Preemergence
  Bermudagrass plant response rating: 75
[2]; 125 g ai/ha, preemergence
  Bermudagrass plant response rating: 98
[2]; Preemergence, 31 g ai/ha
  Plant response rating, Bermudagrass: 60
[3]; 16 g ai/ha, preemergence
  Plant response rating, Kochia: 0
[3]; 62 g ai/ha, Preemergence
  Kochia plant response rating: 15
[3]; 125 g ai/ha, preemergence
  Kochia plant response rating: 90
[3]; Preemergence, 31 g ai/ha
  Plant response rating, Kochia: 0
[4]; 16 g ai/ha, preemergence
  Plant response rating, Black Mustard: 50
[4]; 62 g ai/ha, Preemergence
  Black Mustard plant response rating: 100
[4]; 125 g ai/ha, preemergence
  Black Mustard plant response rating: 100
[4]; Preemergence, 31 g ai/ha
  Plant response rating, Black Mustard: 65
[5]; 16 g ai/ha, preemergence
  Plant response rating, Surinam Grass: 0
[5]; 125 g ai/ha, preemergence
  Surinam Grass plant response rating: 100
[5]; Preemergence, 62 g ai/ha
  Plant response rating, Surinam Grass: 98
[5]; Preemergence, 31 g ai/ha
  Plant response rating, Surinam Grass: 90
[6]; 16 g ai/ha, preemergence
  Plant response rating, Ryegrass, Italian: 0
[6]; 125 g ai/ha, preemergence
  Ryegrass, Italian plant response rating: 70
[6]; Preemergence, 62 g ai/ha
  Plant response rating, Ryegrass, Italian: 60
[6]; Preemergence, 31 g ai/ha
  Plant response rating, Ryegrass, Italian: 50
[7]; 16 g ai/ha, preemergence
  Plant response rating, Quackgrass: 70
[7]; 62 g ai/ha, Preemergence
  Quackgrass plant response rating: 85
[7]; 125 g ai/ha, preemergence
  Quackgrass plant response rating: 100
[7]; Preemergence, 31 g ai/ha
  Plant response rating, Quackgrass: 75
[8]; 16 g ai/ha, preemergence
  Plant response rating, Purple Nutsedge: 25
[8]; 62 g ai/ha, Preemergence
  Purple Nutsedge plant response rating: 60
[8]; 125 g ai/ha, preemergence
  Purple Nutsedge plant response rating: 100
[8]; Preemergence, 31 g ai/ha
  Plant response rating, Purple Nutsedge: 40
[9]; 16 g ai/ha, preemergence
  Plant response rating, Ragweed: 0
[9]; 125 g ai/ha, preemergence
  Ragweed plant response rating: 80
[9]; Preemergence, 62 g ai/ha
  Plant response rating, Ragweed: 70
[9]; Preemergence, 31 g ai/ha
  Plant response rating, Ragweed: 70
[10]; 16 g ai/ha, preemergence
  Plant response rating, Goosegrass: 40
[10]; 62 g ai/ha, Preemergence
  Goosegrass plant response rating: 75
[10]; 125 g ai/ha, preemergence
  Goosegrass plant response rating: 100
[10]; Preemergence, 31 g ai/ha
  Plant response rating, Goosegrass: 60
[11]; [17]
  Cupgrass, Woolly plant response rating: 85
[11]; [19]
  Cupgrass, Woolly plant response rating: 100
[11]; [20]
  Cupgrass, Woolly plant response rating: 100
[12]; 16 g ai/ha, preemergence
  Plant response rating, Signalgrass: 30
[12]; 125 g ai/ha, preemergence
  Signalgrass plant response rating: 95
[12]; Preemergence, 62 g ai/ha
  Plant response rating, Signalgrass: 65
[12]; Preemergence, 31 g ai/ha
  Plant response rating, Signalgrass: 30
[13]; 16 g ai/ha, preemergence
  Plant response rating, Sandbur: 15
[13]; 125 g ai/ha, preemergence
  Sandbur plant response rating: 100
[13]; Preemergence, 62 g ai/ha
  Plant response rating, Sandbur: 100
[13]; Preemergence, 31 g ai/ha
  Plant response rating, Sandbur: 70
[14]; [17]
  Blackgrass plant response rating: 70
[14]; [19]
  Blackgrass plant response rating: 100
[14]; Preemergence, 31 g ai/ha, scale 0 to 100 (0 no effect, 100 complete control)
  Plant response rating, Blackgrass: 50
[14]; [20]
  Blackgrass plant response rating: 100
[15]; [17]
  Corn plant response rating: 80
[15]; [19]
  Corn plant response rating: 100
[15]; [20]
  Corn plant response rating: 100
[16]; 16 g ai/ha, preemergence
  Plant response rating, Crabgrass, Large: 0
[16]; 62 g ai/ha, Preemergence
  Crabgrass, Large plant response rating: 80
[16]; 125 g ai/ha, preemergence
  Crabgrass, Large plant response rating: 95
[16]; Preemergence, 31 g ai/ha
  Plant response rating, Crabgrass, Large: 70

## Cn1nc(C(F)(F)F)c(CS(=O)(=O)c2cccc[n+]2[O-])c1OC(F)F [Compound 4]
[1]; 8 g ai/ha, preemergence, scale 0 to 100
  Plant response rating, Barnyardgrass: 10
[1]; [17]
  Barnyardgrass plant response rating: 80
[1]; Preemergence, 16 g ai/ha, scale 0 to 100
  Plant response rating, Barnyardgrass: 65
[1]; [18]
  Plant response rating, Barnyardgrass: 80
[2]; 8 g ai/ha, preemergence
  Plant response rating, Bermudagrass: 20
[2]; 62 g ai/ha, Preemergence
  Bermudagrass plant response rating: 100
[2]; Preemergence, 16 g ai/ha
  Plant response rating, Bermudagrass: 98
[2]; Preemergence, 31 g ai/ha
  Plant response rating, Bermudagrass: 100
[3]; 8 g ai/ha, preemergence
  Plant response rating, Kochia: 0
[3]; 62 g ai/ha, Preemergence
  Kochia plant response rating: 75
[3]; Preemergence, 16 g ai/ha
  Plant response rating, Kochia: 0
[3]; Preemergence, 31 g ai/ha
  Plant response rating, Kochia: 75
[4]; 8 g ai/ha, preemergence
  Plant response rating, Black Mustard: 0
[4]; 62 g ai/ha, Preemergence
  Black Mustard plant response rating: 98
[4]; Preemergence, 16 g ai/ha
  Plant response rating, Black Mustard: 20
[4]; Preemergence, 31 g ai/ha
  Plant response rating, Black Mustard: 98
[5]; 8 g ai/ha, preemergence
  Plant response rating, Surinam Grass: 0
[5]; 16 g ai/ha, preemergence
  Plant response rating, Surinam Grass: 20
[5]; Preemergence, 31 g ai/ha
  Plant response rating, Surinam Grass: 100
[6]; 8 g ai/ha, preemergence
  Plant response rating, Ryegrass, Italian: 0
[6]; 62 g ai/ha, Preemergence
  Ryegrass, Italian plant response rating: 65
[6]; Preemergence, 16 g ai/ha
  Plant response rating, Ryegrass, Italian: 0
[6]; Preemergence, 31 g ai/ha
  Plant response rating, Ryegrass, Italian: 65
[7]; 8 g ai/ha, preemergence
  Plant response rating, Quackgrass: 0
[7]; 62 g ai/ha, Preemergence
  Quackgrass plant response rating: 75
[7]; Preemergence, 16 g ai/ha
  Plant response rating, Quackgrass: 0
[7]; Preemergence, 31 g ai/ha
  Plant response rating, Quackgrass: 35
[8]; 8 g ai/ha, preemergence
  Plant response rating, Purple Nutsedge: 0
[8]; 62 g ai/ha, Preemergence
  Purple Nutsedge plant response rating: 80
[8]; Preemergence, 16 g ai/ha
  Plant response rating, Purple Nutsedge: 65
[8]; Preemergence, 31 g ai/ha
  Plant response rating, Purple Nutsedge: 65
[9]; 8 g ai/ha, preemergence
  Plant response rating, Ragweed: 0
[9]; 62 g ai/ha, Preemergence
  Ragweed plant response rating: 90
[9]; Preemergence, 16 g ai/ha
  Plant response rating, Ragweed: 65
[9]; Preemergence, 31 g ai/ha
  Plant response rating, Ragweed: 75
[10]; 8 g ai/ha, preemergence
  Plant response rating, Goosegrass: 0
[10]; 62 g ai/ha, Preemergence
  Goosegrass plant response rating: 98
[10]; Preemergence, 16 g ai/ha
  Plant response rating, Goosegrass: 80
[10]; Preemergence, 31 g ai/ha
  Plant response rating, Goosegrass: 98
[11]; [21]
  Cupgrass, Woolly plant response rating: 60
[11]; [22]
  Cupgrass, Woolly plant response rating: 98
[11]; Preemergence, 250 g ai/ha
  Plant response rating (0 to 100), Cupgrass, Woolly: 100
[11]; [23]
  Cupgrass, Woolly plant response rating: 98
[12]; 8 g ai/ha, preemergence
  Plant response rating, Signalgrass: 0
[12]; 16 g ai/ha, preemergence
  Plant response rating, Signalgrass: 15
[12]; 62 g ai/ha, Preemergence
  Signalgrass plant response rating: 80
[12]; Preemergence, 31 g ai/ha
  Plant response rating, Signalgrass: 35
[13]; 8 g ai/ha, preemergence
  Plant response rating, Sandbur: 25
[13]; 16 g ai/ha, preemergence
  Plant response rating, Sandbur: 90
[13]; 62 g ai/ha, Preemergence
  Sandbur plant response rating: 100
[13]; Preemergence, 31 g ai/ha
  Plant response rating, Sandbur: 100
[14]; [21]
  Blackgrass plant response rating: 70
[14]; [22]
  Blackgrass plant response rating: 80
[14]; Preemergence, 250 g ai/ha
  Plant response rating (0 to 100), Blackgrass: 100
[14]; [23]
  Blackgrass plant response rating: 95
[15]; [21]
  Corn plant response rating: 0
[15]; [22]
  Corn plant response rating: 50
[15]; Preemergence, 250 g ai/ha
  Plant response rating (0 to 100), Corn: 70
[15]; [23]
  Corn plant response rating: 55
[16]; 62 g ai/ha, Preemergence
  Crabgrass, Large plant response rating: 100
[16]; Preemergence, 16 g ai/ha
  Plant response rating, Crabgrass, Large: 70
[16]; Preemergence, 31 g ai/ha
  Plant response rating, Crabgrass, Large: 70
